Where two headings read alike, the source gives them in different places.
Assays:
[1] = DCM
ERAP1 = target: T1, ERAP1 (Homo sapiens, UniProt Q9NZ08); experiment: ERAP1 mediated hydrolysis of an amide substrate (10-mer inhibition assay), biochemical system; details: 10-mer substrate, incubated at 23° C. for 1 h, excitation 279 nm and emission 355 nm; read-out: IC50 vs Decapeptide WRVYEKC(Dnp)ALK-acid (where Dnp is Dinitrophenyl maleimide) (10-mer)
T1 construct: Purified ERAP1(37-941)-10His (ERAP1); 10His (C)
T1 sequence (Q9NZ08 37-941): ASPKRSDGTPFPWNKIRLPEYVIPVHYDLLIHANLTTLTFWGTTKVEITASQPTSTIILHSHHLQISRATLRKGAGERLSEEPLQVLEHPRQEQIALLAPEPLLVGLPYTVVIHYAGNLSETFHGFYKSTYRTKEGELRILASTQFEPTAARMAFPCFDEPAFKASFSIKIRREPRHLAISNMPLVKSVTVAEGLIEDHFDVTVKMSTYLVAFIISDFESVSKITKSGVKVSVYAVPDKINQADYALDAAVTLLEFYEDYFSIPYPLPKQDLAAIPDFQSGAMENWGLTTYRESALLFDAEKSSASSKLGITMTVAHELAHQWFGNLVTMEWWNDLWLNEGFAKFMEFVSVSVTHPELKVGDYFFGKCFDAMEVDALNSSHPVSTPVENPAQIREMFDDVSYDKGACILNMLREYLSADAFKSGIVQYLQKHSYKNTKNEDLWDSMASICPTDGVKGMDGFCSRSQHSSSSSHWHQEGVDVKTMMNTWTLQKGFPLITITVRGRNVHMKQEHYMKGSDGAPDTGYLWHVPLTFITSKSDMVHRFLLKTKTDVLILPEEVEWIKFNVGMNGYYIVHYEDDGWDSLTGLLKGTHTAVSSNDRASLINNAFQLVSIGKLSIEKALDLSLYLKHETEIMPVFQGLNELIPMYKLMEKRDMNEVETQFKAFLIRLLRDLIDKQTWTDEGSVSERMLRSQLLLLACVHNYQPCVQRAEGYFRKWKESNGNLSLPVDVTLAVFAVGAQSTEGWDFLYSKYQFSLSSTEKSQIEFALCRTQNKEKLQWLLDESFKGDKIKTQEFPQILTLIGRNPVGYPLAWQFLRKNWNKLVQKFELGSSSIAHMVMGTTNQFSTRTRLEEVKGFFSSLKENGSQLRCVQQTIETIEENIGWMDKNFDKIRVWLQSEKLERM
Procedure, shortened: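 Purified ERAP1(37-941)-10His in 25 mM Bis-tris propane, 0.05% HPMC, pH 7.75 was mixed with compound, then 240 μM L-AMC or 100 μM 10-mer WRVYEKC(Dnp)ALK (concentrations before mixing) was added, 1 h at 23 °C. 10-mer cleavage read as tryptophan fluorescence (ex 279/em 355 nm); L-AMC at ex 365/em 442 nm. IC50 from 4-parameter fit.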

IC50 (ERAP1)	Compound	other results
–	COC(=O)c1ccc2c(c1)S(=O)(=O)Nc1cc(C#N)c(Cl)cc1N1CCCCC1C=CCO2 (stereo not shown)	ring closure, isolated yield ([1]; from C=CCOc1ccc(C(=O)OC)cc1S(=O)(=O)Nc1cc(C#N)c(Cl)cc1N1CCCCC1C=C, rcm bond, 12-membered ring, Hoveyda-Grubbs II (2 x 5 mol%), 56.3 mM, 88.0 h): 25%
–	COC(=O)c1ccc2c(c1)S(=O)(=O)Nc1cc(C#N)c(Cl)cc1N1CCCC[C@@H]1CCCO2	ring closure, isolated yield ([1]; from COC(=O)c1ccc(O)c(S(=O)(=O)Nc2cc(C#N)c(Cl)cc2N2CCCC[C@@H]2CCCO)c1, ether bond, 12-membered ring, PPh3/DIAD, 43.7 mM, 1.0 h): 22%
–	COC(=O)c1ccc2c(c1)S(=O)(=O)Nc1cc(C#N)c(Cl)cc1N1CCCC[C@H]1CC=CCO2	ring closure, isolated yield ([1]; from C=CCOc1ccc(C(=O)OC)cc1S(=O)(=O)Nc1cc(C#N)c(Cl)cc1N1CCCC[C@H]1CC=C, rcm bond, 13-membered ring, Hoveyda-Grubbs II, 20.1 mM, 16.0 h): 81%
–	COC(=O)c1ccc2c(c1)S(=O)(=O)Nc1cc(C#N)c(Cl)cc1N1CCCC[C@H]1CCCO2	ring closure, isolated yield ([1]; from COC(=O)c1ccc(O)c(S(=O)(=O)Nc2cc(C#N)c(Cl)cc2N2CCCC[C@H]2CCCO)c1, ether bond, 12-membered ring, PPh3/DIAD, 47.1 mM, 1.0 h): 23%
–	COC(=O)c1ccc2c(c1)S(=O)(=O)Nc1cc(C#N)c(F)cc1N1CCCC[C@H]1CCCCO2	ring closure, isolated yield ([1]; from COC(=O)c1ccc(O)c(S(=O)(=O)Nc2cc(C#N)c(F)cc2N2CCCC[C@H]2CCCCO)c1, ether bond, 13-membered ring, PPh3/DIAD, 31.7 mM, 1.0 h): 88%
< 250 nM	N#Cc1cc2c(cc1Cl)N1CCCC[C@H]1C/C=C/COc1ccc(C(=O)O)cc1S(=O)(=O)N2 [Example 61, (S,E)-3-chloro-2-cyano-7,8,9,9a,10,13-hexahydro-6H, 20H-dibenzo[b,f]pyrido[1,2-h][1]oxa[4]thia[5,8]diazacyclotridecine-17-carboxylic acid 19,19-dioxide]	–
> 1000 nM	CS(=O)(=O)NC(=O)c1ccc2c(c1)S(=O)(=O)Nc1cc(C#N)c(F)cc1N1CCCC[C@H]1CCCCO2 [Example 63, (S)-2-cyano-3-fluoro-N-(methylsulfonyl)-7,8,9,9a,10,11,12,13-octahydro-6H, 20H-dibenzo[b,f]pyrido[1,2-h][1]oxa[4]thia[5,8]diazacyclotridecine-17-carboxamide 19,19-dioxide]	–
> 1000 nM	CS(=O)(=O)NC(=O)c1ccc2c(c1)S(=O)(=O)Nc1cc(C#N)c(Cl)cc1N1CCCC[C@H]1CCCO2 [Example 64, (S)-3-chloro-2-cyano-N-(methylsulfonyl)-6,7,8,9,9a,10,11,12-octahydro-19H-dibenzo[b,f]pyrido[1,2-h][1]oxa[4]thia[5,8]diazacyclododecine-16-carboxamide 18,18-dioxide]	–
< 250 nM	N#Cc1cc2c(cc1Cl)N1CCCC[C@H]1COCCOc1ccc(C(=O)O)cc1S(=O)(=O)N2 [Example 69, (S)-3-chloro-2-cyano-6,7,8,9,9a,10,12,13-octahydro-20H-dibenzo[e,i]pyrido[1,2-k][1,4]dioxa[7]thia[8,11]diazacyclotridecine-17-carboxylic acid 19,19-dioxide]	–
< 250 nM	N#Cc1cc2c(cc1Cl)N1CCCC[C@H]1CCCCCc1ccc(C(=O)O)cc1S(=O)(=O)N2 [Example 72, (R)-3-chloro-2-cyano-6,7,8,9,9a,10,11,12,13,14-decahydro-20H-dibenzo[c,l]pyrido[1,2-e][1]thia[2,5]diazacyclotridecine-17-carboxylic acid 19,19-dioxide]	–
< 250 nM	N#Cc1cc2c(cc1Cl)N1CCCC[C@H]1COCCCc1ccc(C(=O)O)cc1S(=O)(=O)N2 [Example 73, (S)-3-chloro-2-cyano-6,7,8,9,9a,10,13,14-octahydro-12H, 20H-dibenzo[e,i]pyrido[2,1-c][1]oxa[8]thia[4,7]diazacyclotridecine-17-carboxylic acid 19,19-dioxide]	–
–	(E)-20-tert-butyl 17-methyl 2-(trifluoromethyl)-6,7,8,9,9a,10-hexahydrodibenzo[b,f]pyrido[1,2-h][1,4,5,8]oxathiadiazacyclotridecine-17,20(13H)-dicarboxylate 19,19-dioxide	ring closure, isolated yield ([1]; rcm bond, 13-membered ring, Hoveyda-Grubbs II (two portions), 42.3 mM, 35.0 °C): 33%
–	methyl (E)-2-cyano-7,8,9,9a,10,13-hexahydro-6H, 20H-dibenzo[b,f]pyrido[1,2-h][1]oxa[4]thia[5,8]diazacyclotridecine-17-carboxylate 19,19-dioxide	ring closure, isolated yield ([1]; rcm bond, 13-membered ring, Hoveyda-Grubbs II (5 mol%), 50.2 mM): 66%

Compound	IC50 (ERAP1)	other results
N#Cc1cc2c(cc1Cl)N1CCCC[C@H]1CCCOc1ccc(C(=O)O)cc1S(=O)(=O)N2 [Example 60, (S)-3-chloro-2-cyano-6,7,8,9,9a,10,11,12-octahydro-19H-dibenzo[b,f]pyrido[1,2-h][1]oxa[4]thia[5,8]diazacyclododecine-16-carboxylic acid 18,18-dioxide]	< 250 nM	–
N#Cc1cc2c(cc1Cl)N1CCCC[C@H]1COC/C=C/c1ccc(C(=O)O)cc1S(=O)(=O)N2 [Example 70, (S,E)-3-chloro-2-cyano-6,7,8,9,9a,10-hexahydro-12H, 20H-dibenzo[e,i]pyrido[2,1-c][1]oxa[8]thia[4,7]diazacyclotridecine-17-carboxylic acid 19,19-dioxide]	< 250 nM	–
N#Cc1cc2c(cc1Cl)N1CCCC[C@H]1CCC/C=C/c1ccc(C(=O)O)cc1S(=O)(=O)N2 [Example 71, (R,E)-3-chloro-2-cyano-6,7,8,9,9a,10,11,12-octahydro-20H-dibenzo[c,l]pyrido[1,2-e][1]thia[2,5]diazacyclotridecine-17-carboxylic acid 19,19-dioxide]	250 to 1000 nM	–

Source: patent publication US20240300976A1, “COMPOUNDS AS MODULATORS OF ENDOPLASMIC RETICULUM AMINOPEPTIDASE 1 (ERAP1)” (GREY WOLF THERAPEUTICS LIMITED, priority 2020, published 2024)
